From US10723727B2, “Tubulysin analogs and methods for their preparation” (priority 2016, dated 2020)
Where two headings read alike, the source gives them in different places.

What was measured:
[1] = biological target: T1, tubulin/RB3-stathmin-like-domain (RB3-SLD-tdm) complex (Sus scrofa, UniProt P02550+P02554); test: Tubulin Peptide-Binding Site Competition Assay (fluorescence polarization); design: species or system Porcine; conditions: FP competition with BODIPY-labeled vinca peptide probe; read after five hours at 22° C.; read-out: Tubulin Peptide-Binding Site Competition Assay IC50
T1 construct: purchased Cytoskeleton, Inc. T240; host or cells: RB3-SLD was made in house in E. coli
In short: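 The BODIPY vinca-peptide probe was premixed with test compound and then added to porcine tubulin/RB3-SLD, at final concentrations of 3 nM probe, 6 nM tubulin and 100 nM RB3-SLD. The buffer was PIPES pH 7.0 with Tween 20, MgCl2 and EGTA, and 11-point dilutions were run in duplicate. IC50 was fitted from the fluorescence polarization decrease and converted to Ki.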

[2] = test system: MDA-MB-361-DYT2 (breast cancer) cells; test: In vitro cell assay (MTS cell viability), MDA-MB-361-DYT2; type: cell-based; conditions: free compounds, 96 hours after treatment
Procedure: (§1) In Vitro Cell Assay Procedure
(§2) Target expressing (BT474 (breast cancer), N87 (gastric cancer), HCC1954 (breast cancer), MDA-MB-361-DYT2 (breast cancer)) or non-expressing (HT-29) cells were seeded in 96-well cell culture plates for 24 hours before treatment. Cells were treated with 3-fold serially diluted antibody-drug conjugates or free compounds (i. e. no antibody conjugated to the drug) in duplicate at 10 concentrations. Cell viability was determined by CellTiter 96® AQueous One Solution Cell Proliferation MTS Assay (Promega, Madison Wis.) 96 hours after treatment. Relative cell viability was determined as percentage of untreated control. IC50 values were calculated using a four parameter logistic model #203 with XLfit v4. 2 (IDBS, Guildford, Surry, UK).

[3] = test system: N87 (gastric cancer) cells; test: In vitro cell assay (MTS cell viability), N87; type: cell-based; conditions: free compounds, 96 hours after treatment
Procedure: as §1, §2

HT-29 cells = test: In vitro cell assay (MTS cell viability), HT-29 (target non-expressing); type: cell-based; conditions: free compounds, 96 hours after treatment, read-out: HT29 IC50
Procedure: as §1, §2

SMILES	IC50 [1] [nM]	IC50 ([2]; 96 h) [nM]	IC50 ([3]; 96 h) [nM]	IC50 (HT-29 cells; Homo sapiens, HT-29, 96 h) [nM]	IC50 [2] [nM]	IC50 [3] [nM]	IC50 (HT-29 cells) [nM]
CC[C@H](C)[C@H](NC(=O)[C@@]1(C)CCCN1C)C(=O)N(C)[C@H](C[C@@H](OC(C)=O)c1nc(C(=O)N[C@@H](Cc2ccccc2)C[C@H](C)C(=O)OC)cs1)C(C)C [#B5, 1,2-dimethyl-D-prolyl-N-[(1R,3R)-1-(acetyloxy)-1-(4-{[(2R,4S)-5-methoxy-4-methyl-5-oxo-1-phenylpentan-2-yl]carbamoyl}-1,3-thiazol-2-yl)-4-methylpentan-3-yl]-N-methyl-L-isoleucinamide]	22.4	0.361	0.763	1.11	–	–	–
CC[C@H](C)[C@H](NC(=O)[C@@]1(C)CCCN1C)C(=O)N(C)[C@H](C[C@@H](OC(C)=O)c1nc(C(=O)N[C@@H](Cc2ccc(N)cc2)C[C@H](C)C(=O)O)cs1)C(C)C [#B9, 1,2-dimethyl-D-prolyl-N-[(1R,3R)-1-(acetyloxy)-1-(4-{[(2R,4S)-1-(4-aminophenyl)-4-carboxypentan-2-yl]carbamoyl}-1,3-thiazol-2-yl)-4-methylpentan-3-yl]-N-methyl-L-isoleucinamide]	2.5	0.765	1.07	0.642	–	–	–
CC[C@H](C)[C@H](NC(=O)[C@H](NC)C(C)C)C(=O)N(C)[C@H](C[C@@H](OC(C)=O)c1nc(C(=O)N[C@@H](Cc2ccccc2)C[C@H](C)C(=O)O)cs1)C(C)C [#B12, N-methyl-D-valyl-N-[(1R,3R)-1-(acetyloxy)-1-(4-{[(2R,4S)-4-carboxy-1-phenylpentan-2-yl]carbamoyl}-1,3-thiazol-2-yl)-4-methylpentan-3-yl]-N-methyl-L-isoleucinamide]	< 0.458	2.97	2.98	4.52	–	–	–
CC[C@H](C)[C@H](NC(=O)C12CCC(CC1)N2C)C(=O)N(C)[C@H](C[C@@H](OC(C)=O)c1nc(C(=O)N[C@@H](Cc2ccccc2)C[C@H](C)C(=O)OC)cs1)C(C)C [#B13, methyl (2S,4R)-4-[({2-[(1R,3R)-1-(acetyloxy)-4-methyl-3-{methyl[(2S,3S)-3-methyl-2-{[(7-methyl-7-azabicyclo[2.2.1]hept-1-yl)carbonyl]amino}pentanoyl]amino}pentyl]-1,3-thiazol-4-yl}carbonyl)amino]-2-methyl-5-phenylpentanoate]	3.7	< 0.036	< 0.061	< 0.022	–	–	–
CC[C@H](C)[C@H](NC(=O)C12CC(CCN1C)C2)C(=O)N(C)[C@H](C[C@@H](OC(C)=O)c1nc(C(=O)N[C@@H](Cc2ccccc2)C[C@H](C)C(=O)OC)cs1)C(C)C [#B14, methyl (2S,4R)-4-[({2-[(1R,3R)-1-(acetyloxy)-4-methyl-3-(methyl{N-[(2-methyl-2-azabicyclo[3.1.1]hept-1-yl)carbonyl]-L-isoleucyl}amino)pentyl]-1,3-thiazol-4-yl}carbonyl)amino]-2-methyl-5-phenylpentanoate]	11.5	0.017	0.337	0.063	–	–	–
CC[C@H](C)[C@H](NC(=O)[C@@]1(C)CCCN1C)C(=O)N(C)[C@H](C[C@@H](O)c1nc(C(=O)N[C@@H](Cc2ccccc2)C[C@H](C)C(=O)O)cs1)C(C)C [#B15, 1,2-dimethyl-D-prolyl-N-[(1R,3R)-1-(4-{[(2R,4S)-4-carboxy-1-phenylpentan-2-yl]carbamoyl}-1,3-thiazol-2-yl)-1-hydroxy-4-methylpentan-3-yl]-N-methyl-L-isoleucinamide]	7	> 100	> 100	> 100	–	–	–
CC[C@H](C)[C@H](NC(=O)C12CCCC(CCC1)N2C)C(=O)N(C)[C@H](C[C@@H](OC(C)=O)c1nc(C(=O)N[C@@H](Cc2ccccc2)C[C@H](C)C(=O)OC)cs1)C(C)C [#B16, methyl (2S,4R)-4-[({2-[(1R,3R)-1-(acetyloxy)-4-methyl-3-(methyl{N-[(9-methyl-9-azabicyclo[3.3.1]non-1-yl)carbonyl]-L-isoleucyl}amino)pentyl]-1,3-thiazol-4-yl}carbonyl)amino]-2-methyl-5-phenylpentanoate]	10.4	< 0.064	< 0.042	< 0.026	–	–	–
CC[C@H](C)[C@H](NC(=O)C12CC(CN1C)C2)C(=O)N(C)[C@H](C[C@@H](OC(C)=O)c1nc(C(=O)N[C@@H](Cc2ccccc2)C[C@H](C)C(=O)OC)cs1)C(C)C [#B17, methyl (2S,4R)-4-[({2-[(1R,3R)-1-(acetyloxy)-4-methyl-3-(methyl{N-[(2-methyl-2-azabicyclo[2.1.1]hex-1-yl)carbonyl]-L-isoleucyl}amino)pentyl]-1,3-thiazol-4-yl}carbonyl)amino]-2-methyl-5-phenylpentanoate]	19.2	0.04	0.386	0.037	–	–	–
CCNC(=O)O[C@H](C[C@H](C(C)C)N(C)C(=O)[C@@H](NC(=O)[C@]1(C)CCCCN1C)[C@@H](C)CC)c1nc(C(=O)N[C@@H](Cc2ccc(N)cc2)C[C@H](C)C(=O)O)cs1 [#B25, (2S,4R)-5-(4-aminophenyl)-4-{[(2-{(1R,3R)-3-[(N-{[(2S)-1,2-dimethylpiperidin-2-yl]carbonyl}-L-isoleucyl)(methyl)amino]-1-[(ethylcarbamoyl)oxy]-4-methylpentyl}-1,3-thiazol-4-yl)carbonyl]amino}-2-methylpentanoic acid]	–	–	–	–	4.62	6.3	5.9
CC[C@H](C)[C@H](NC(=O)[C@@]1(C)CCCN1C)C(=O)N(C)[C@H](C[C@@H](NC(C)=O)c1nc(C(=O)N[C@@H](Cc2ccc(N)cc2)C[C@H](C)C(=O)O)cs1)C(C)C [#B28, 1,2-dimethyl-D-prolyl-N-[(1R,3R)-1-(acetylamino)-1-(4-{[(2R,4S)-1-(4-aminophenyl)-4-carboxypentan-2-yl]carbamoyl}-1,3-thiazol-2-yl)-4-methylpentan-3-yl]-N-methyl-L-isoleucinamide]	–	81.5	> 100	74.9	–	–	–
CCNC(=O)N[C@H](C[C@H](C(C)C)N(C)C(=O)[C@@H](NC(=O)[C@@]1(C)CCCN1C)[C@@H](C)CC)c1nc(C(=O)N[C@@H](Cc2ccc(N)cc2)C[C@H](C)C(=O)O)cs1 [#B29, 1,2-dimethyl-D-prolyl-N-{(1R,3R)-1-(4-{[(2R,4S)-1-(4-aminophenyl)-4-carboxypentan-2-yl]carbamoyl}-1,3-thiazol-2-yl)-1-[(ethylcarbamoyl)amino]-4-methylpentan-3-yl}-N-methyl-L-isoleucinamide]	–	24.9	28.6	24.5	–	–	–
CC[C@H](C)[C@H](NC(=O)[C@@]1(C)CCCN1C)C(=O)N(C)[C@H](C[C@H](O)c1nc(C(=O)N[C@@H](Cc2ccc(N)cc2)C[C@H](C)C(=O)O)cs1)C(C)C [#B33, 1,2-dimethyl-D-prolyl-N-{(1S,3R)-1-(4-{[(2R,4S)-1-(4-aminophenyl)-4-carboxypentan-2-yl]carbamoyl}-1,3-thiazol-2-yl)-1-hydroxy-4-methylpentan-3-yl]-N-methyl-L-isoleucinamide]	–	> 1000	> 1000	> 1000	–	–	–
